In PubChem BioAssay (NCI):
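Abbreviation: GI50, concentration required for 50% inhibition of growth. TGI marks complete inhibition of growth.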

How the values were obtained:
Assay in all cases: growth of human tumour cells (NCI), 384-well format
786-0 renal = tested on: 786-0 renal
A498 renal = tested on: A498 renal
A549 NSCLC = tested on: A549 NSCLC
ACHN renal = tested on: ACHN renal
BT-549 breast = tested on: BT-549 breast
CAKI-1 renal = tested on: CAKI-1 renal
CCRF-CEM leukemia = tested on: CCRF-CEM leukemia
COLO 205 colon = tested on: COLO 205 colon
DU-145 prostate = tested on: DU-145 prostate
EKVX NSCLC = tested on: EKVX NSCLC
HCC-2998 colon = tested on: HCC-2998 colon
HCT-116 colon = tested on: HCT-116 colon
HCT-15 colon = tested on: HCT-15 colon
HL-60(TB) leukemia = tested on: HL-60(TB) leukemia
HOP-62 NSCLC = tested on: HOP-62 NSCLC
HOP-92 NSCLC = tested on: HOP-92 NSCLC
HS 578T breast = tested on: HS 578T breast
HT29 colon = tested on: HT29 colon
IGROV1 ovarian = tested on: IGROV1 ovarian
K-562 leukemia = tested on: K-562 leukemia
KM12 colon = tested on: KM12 colon
LOX IMVI melanoma = tested on: LOX IMVI melanoma
M14 melanoma = tested on: M14 melanoma
MALME-3M melanoma = tested on: MALME-3M melanoma
MCF7 breast = tested on: MCF7 breast
MDA-MB-231 breast = tested on: MDA-MB-231 breast
MDA-MB-435 melanoma = tested on: MDA-MB-435 melanoma
MDA-MB-468 breast = tested on: MDA-MB-468 breast
MOLT-4 leukemia = tested on: MOLT-4 leukemia
NCI-H226 lung = tested on: NCI-H226 lung
NCI-H23 lung = tested on: NCI-H23 lung
NCI-H322M lung = tested on: NCI-H322M lung
NCI-H460 NSCLC = tested on: NCI-H460 NSCLC
NCI-H522 lung = tested on: NCI-H522 lung
NCI/ADR-RES ovarian = tested on: NCI/ADR-RES ovarian
OVCAR-3 ovarian = tested on: OVCAR-3 ovarian
OVCAR-4 ovarian = tested on: OVCAR-4 ovarian
OVCAR-5 ovarian = tested on: OVCAR-5 ovarian
OVCAR-8 ovarian = tested on: OVCAR-8 ovarian
PC-3 prostate = tested on: PC-3 prostate
RPMI-8226 leukemia = tested on: RPMI-8226 leukemia
RXF 393 renal = tested on: RXF 393 renal
SF-268 CNS = tested on: SF-268 CNS
SF-295 CNS = tested on: SF-295 CNS
SF-539 CNS = tested on: SF-539 CNS
SK-MEL-28 melanoma = tested on: SK-MEL-28 melanoma
SK-MEL-5 melanoma = tested on: SK-MEL-5 melanoma
SK-OV-3 ovarian = tested on: SK-OV-3 ovarian
SN12C renal = tested on: SN12C renal
SNB-19 CNS = tested on: SNB-19 CNS
SNB-75 CNS = tested on: SNB-75 CNS
SW-620 colon = tested on: SW-620 colon
T-47D breast = tested on: T-47D breast
TK-10 renal = tested on: TK-10 renal
U251 glioblastoma = tested on: U251 glioblastoma
UACC-257 melanoma = tested on: UACC-257 melanoma
UACC-62 melanoma = tested on: UACC-62 melanoma
UO-31 renal = tested on: UO-31 renal

Cc1csc(-c2nnc(Nc3ccc(Oc4ncccc4-c4ccnc(N)n4)cc3)c3ccccc23)c1
GI50 ([…]-0 renal): 2710 nM | TGI (786-0 renal): > 100000 nM | GI50 (A498 renal): 253 nM | TGI (A498 renal): > 100000 nM | GI50 (A549 NSCLC): < 10 nM | TGI (A549 NSCLC): > 100000 nM | GI50 (ACHN renal): 878 nM | TGI (ACHN renal): > 100000 nM | GI50 (BT-549 breast): 191 nM | TGI (BT-549 breast): > 100000 nM | GI50 (CAKI-1 renal): 682 nM | TGI (CAKI-1 renal): > 100000 nM | GI50 (CCRF-CEM leukemia): < 10 nM | TGI (CCRF-CEM leukemia): < 10 nM | GI50 (COLO 205 colon): < 10 nM | TGI (COLO 205 colon): < 10 nM | GI50 (DU-145 prostate): 2100 nM | TGI (DU-145 prostate): > 100000 nM | GI50 (EKVX NSCLC): 918 nM | TGI (EKVX NSCLC): > 100000 nM | GI50 (HCC-2998 colon): 1440 nM | TGI (HCC-2998 colon): 3530 nM | GI50 (HCT-116 colon): 33.1 nM | TGI (HCT-116 colon): > 100000 nM | GI50 (HCT-15 colon): 586 nM | TGI (HCT-15 colon): > 100000 nM | GI50 (HL-60(TB) leukemia): < 10 nM | TGI (HL-60(TB) leukemia): 1110 nM | GI50 (HOP-62 NSCLC): 89.4 nM | TGI (HOP-62 NSCLC): > 100000 nM | GI50 (HOP-92 NSCLC): 1960 nM | TGI (HOP-92 NSCLC): 43300 nM | GI50 (HS 578T breast): < 10 nM | TGI (HS 578T breast): 17600 nM | GI50 (HT29 colon): 271 nM | TGI (HT29 colon): 2950 nM | GI50 (IGROV1 ovarian): 1540 nM | TGI (IGROV1 ovarian): > 100000 nM | GI50 (K-562 leukemia): 552 nM | TGI (K-562 leukemia): > 100000 nM | GI50 (KM12 colon): 1690 nM | TGI (KM12 colon): > 100000 nM | GI50 (LOX IMVI melanoma): 187 nM | TGI (LOX IMVI melanoma): > 100000 nM | GI50 (M14 melanoma): 99.5 nM | TGI (M14 melanoma): 3080 nM | GI50 (MALME-3M melanoma): 1510 nM | TGI (MALME-3M melanoma): 6120 nM | GI50 (MCF7 breast): 547 nM | TGI (MCF7 breast): 13100 nM | GI50 (MDA-MB-231 breast): 2340 nM | TGI (MDA-MB-231 breast): > 100000 nM | GI50 (MDA-MB-435 melanoma): 1810 nM | TGI (MDA-MB-435 melanoma): > 100000 nM | GI50 (MDA-MB-468 breast): < 10 nM | TGI (MDA-MB-468 breast): < 10 nM | GI50 (MOLT-4 leukemia): < 10 nM | TGI (MOLT-4 leukemia): < 10 nM | GI50 (NCI-H226 lung): 3250 nM | TGI (NCI-H226 lung): > 100000 nM | GI50 (NCI-H23 lung): 1200 nM | TGI (NCI-H23 lung): 16300 nM | GI50 (NCI-H322M lung): 4920 nM | TGI (NCI-H322M lung): > 100000 nM | GI50 (NCI-H460 NSCLC): < 10 nM | TGI (NCI-H460 NSCLC): 1290 nM | GI50 (NCI-H522 lung): 12.1 nM | TGI (NCI-H522 lung): 4590 nM | GI50 (NCI/ADR-RES ovarian): 166 nM | TGI (NCI/ADR-RES ovarian): > 100000 nM | GI50 (OVCAR-3 ovarian): 53.6 nM | TGI (OVCAR-3 ovarian): > 100000 nM | GI50 (OVCAR-4 ovarian): 5320 nM | TGI (OVCAR-4 ovarian): > 100000 nM | GI50 (OVCAR-5 ovarian): 7210 nM | TGI (OVCAR-5 ovarian): > 100000 nM | GI50 (OVCAR-8 ovarian): 1340 nM | TGI (OVCAR-8 ovarian): > 100000 nM | GI50 (PC-3 prostate): 4050 nM | TGI (PC-3 prostate): > 100000 nM | GI50 (RPMI-8226 leukemia): 10.1 nM | TGI (RPMI-8226 leukemia): 2470 nM | GI50 (RXF 393 renal): < 10 nM | TGI (RXF 393 renal): 5030 nM | GI50 (SF-268 CNS): < 10 nM | TGI (SF-268 CNS): 56.4 nM | GI50 (SF-295 CNS): 51.7 nM | TGI (SF-295 CNS): > 100000 nM | GI50 (SF-539 CNS): 141 nM | TGI (SF-539 CNS): > 100000 nM | GI50 (SK-MEL-28 melanoma): 1510 nM | TGI (SK-MEL-28 melanoma): 9780 nM | GI50 (SK-MEL-5 melanoma): 976 nM | TGI (SK-MEL-5 melanoma): > 100000 nM | GI50 (SK-OV-3 ovarian): 3820 nM | TGI (SK-OV-3 ovarian): > 100000 nM | GI50 (SN12C renal): 1130 nM | TGI (SN12C renal): > 100000 nM | GI50 (SNB-19 CNS): 19600 nM | TGI (SNB-19 CNS): > 100000 nM | GI50 (SNB-75 CNS): 5920 nM | TGI (SNB-75 CNS): > 100000 nM | GI50 (SW-620 colon): 181 nM | TGI (SW-620 colon): 3130 nM | GI50 (T-47D breast): 1440 nM | TGI (T-47D breast): 4880 nM | GI50 (TK-10 renal): 1890 nM | TGI (TK-10 renal): > 100000 nM | GI50 (U251 glioblastoma): 2910 nM | TGI (U251 glioblastoma): > 100000 nM | GI50 (UACC-257 melanoma): 1480 nM | TGI (UACC-257 melanoma): 43200 nM | GI50 (UACC-62 melanoma): 202 nM | TGI (UACC-62 melanoma): 5220 nM | GI50 (UO-31 renal): 2420 nM | TGI (UO-31 renal): > 100000 nM
